Experimental findings from ChEMBL document CHEMBL1909046, “DrugMatrix in vitro pharmacology data” are described below.

The target in assay [1] is Beta-2 adrenergic receptor (Homo sapiens, UniProt P07550). As to the kind of experiment: DRUGMATRIX: Adrenergic beta2 radioligand binding (ligand: [3H] CGP-12177). The settings on record: cho; Not Active = under 50% inhibition at 10 µM. It is filed as cell membranes, CHO, Membrane.
Assay [2] concerns the target T1, 5-hydroxytryptamine receptor 1A (Rattus norvegicus, UniProt P19327). Also: in other assays of this panel Not Active means under 50% inhibition at 10 µM.
T1 sequence (P19327 whole entry): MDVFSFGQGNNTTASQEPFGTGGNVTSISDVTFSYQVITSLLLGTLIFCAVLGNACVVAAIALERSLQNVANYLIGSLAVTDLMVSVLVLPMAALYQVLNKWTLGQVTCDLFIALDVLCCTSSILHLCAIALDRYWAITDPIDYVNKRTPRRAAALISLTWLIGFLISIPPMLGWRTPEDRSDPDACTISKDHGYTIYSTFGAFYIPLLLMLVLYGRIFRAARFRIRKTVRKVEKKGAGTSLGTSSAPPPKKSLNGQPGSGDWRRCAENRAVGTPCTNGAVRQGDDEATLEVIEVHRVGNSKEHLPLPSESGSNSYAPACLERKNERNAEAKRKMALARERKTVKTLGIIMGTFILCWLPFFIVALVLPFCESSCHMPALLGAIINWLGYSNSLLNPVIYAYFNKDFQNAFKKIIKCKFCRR
The class given is cell membranes, CHO-K1, Membrane.

Assay [3] has as its target Receptor tyrosine-protein kinase erbB-2 (Homo sapiens, UniProt P04626). As to the kind of experiment: biochemical. The class given is cell-based, Insect cells.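 Also: inhibition of HER2 kinase enzyme activity, measured with Poly(Glu:Tyr) as the phosphorylation substrate; in other assays of this panel Not Active means under 50% inhibition at 10 µM.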
In assay [4] the target is T2, Polyunsaturated fatty acid lipoxygenase ALOX15 (Oryctolagus cuniculus, UniProt P12530).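 Also: inhibition of 15-lipoxygenase enzyme activity measured with linoleic acid as the substrate; in other assays of this panel Not Active means under 50% inhibition at 10 µM.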
T2 sequence (P12530 whole entry): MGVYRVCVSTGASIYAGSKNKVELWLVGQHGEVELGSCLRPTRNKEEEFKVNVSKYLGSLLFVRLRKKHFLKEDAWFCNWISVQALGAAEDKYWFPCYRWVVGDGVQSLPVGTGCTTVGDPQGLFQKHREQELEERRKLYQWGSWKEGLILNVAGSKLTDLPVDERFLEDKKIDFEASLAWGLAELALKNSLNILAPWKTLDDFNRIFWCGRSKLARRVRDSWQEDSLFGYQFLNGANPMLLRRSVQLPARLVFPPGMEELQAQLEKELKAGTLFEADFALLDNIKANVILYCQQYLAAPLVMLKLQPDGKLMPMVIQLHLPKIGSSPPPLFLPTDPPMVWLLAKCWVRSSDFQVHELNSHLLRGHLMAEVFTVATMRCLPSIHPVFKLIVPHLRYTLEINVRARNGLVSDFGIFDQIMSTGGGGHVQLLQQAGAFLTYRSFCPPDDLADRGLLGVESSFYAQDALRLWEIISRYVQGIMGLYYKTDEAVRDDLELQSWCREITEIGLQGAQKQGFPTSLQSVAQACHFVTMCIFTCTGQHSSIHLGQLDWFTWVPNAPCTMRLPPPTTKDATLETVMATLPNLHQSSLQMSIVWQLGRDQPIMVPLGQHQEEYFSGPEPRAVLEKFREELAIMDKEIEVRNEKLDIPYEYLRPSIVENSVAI
As to the kind of experiment: biochemical. The class given is tissue-based, Reticulocytes.

The target in assay [5] is 5-hydroxytryptamine receptor 2B (Homo sapiens, UniProt P41595). It is filed as cell membranes, CHO-K1, Membrane. Also: in other assays of this panel Not Active means under 50% inhibition at 10 µM.
Chain of 5-hydroxytryptamine receptor 2B (P41595 whole entry): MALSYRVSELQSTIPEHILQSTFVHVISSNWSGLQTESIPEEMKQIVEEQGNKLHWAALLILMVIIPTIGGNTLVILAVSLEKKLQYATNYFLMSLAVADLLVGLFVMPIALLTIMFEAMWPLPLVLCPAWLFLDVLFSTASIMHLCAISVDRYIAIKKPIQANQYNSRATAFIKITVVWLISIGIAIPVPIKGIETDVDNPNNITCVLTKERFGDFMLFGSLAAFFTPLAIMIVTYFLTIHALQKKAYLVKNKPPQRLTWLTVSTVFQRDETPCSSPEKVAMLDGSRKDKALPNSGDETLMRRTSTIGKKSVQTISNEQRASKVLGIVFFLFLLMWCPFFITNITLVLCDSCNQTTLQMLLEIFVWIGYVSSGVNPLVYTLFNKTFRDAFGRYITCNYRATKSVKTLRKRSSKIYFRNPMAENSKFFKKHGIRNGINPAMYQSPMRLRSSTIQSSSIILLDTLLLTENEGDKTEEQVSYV
Assay [6] has as its target Melanocortin receptor 3 (Homo sapiens, UniProt P41968). The class given is cell membranes, HEK293, Membrane. The settings on record: hek293. Also: in other assays of this panel Not Active means under 50% inhibition at 10 µM.

Chain of Melanocortin receptor 3 (P41968 whole entry): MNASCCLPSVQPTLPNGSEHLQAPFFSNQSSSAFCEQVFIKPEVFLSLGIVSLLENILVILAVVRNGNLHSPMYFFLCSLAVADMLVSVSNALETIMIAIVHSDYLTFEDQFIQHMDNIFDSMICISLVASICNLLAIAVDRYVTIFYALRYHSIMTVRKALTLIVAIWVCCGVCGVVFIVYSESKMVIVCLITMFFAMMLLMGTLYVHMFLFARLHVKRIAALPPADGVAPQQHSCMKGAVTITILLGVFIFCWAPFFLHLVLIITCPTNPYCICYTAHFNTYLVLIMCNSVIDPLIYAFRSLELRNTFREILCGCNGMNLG

A word on the IC50: it is the midpoint of a concentration-inhibition curve. With `COc1ccc(C2C(=O)c3ccccc3C2=O)cc1` [ANISINDIONE], the IC50 entry in assay [1], in assay [2] (cho-k1), in assay [3] (insect cells), in assay [4] (reticulocytes), in assay [5] (cho-k1) and in assay [6] was “Not Active” each time.

In the case of `CC[C@H](C)[C@H]1O[C@]2(C=C[C@@H]1C)C[C@@H]1C[C@@H](C/C=C(\C)[C@@H](O[C@H]3C[C@H](OC)[C@@H](O[C@H]4C[C@H](OC)[C@@H](O)[C@H](C)O4)[C@H](C)O3)[C@@H](C)/C=C/C=C3\CO[C@@H]4[C@H](O)C(C)=C[C@@H](C(=O)O1)[C@]34O)O2.CO[C@H]1C[C@H](O[C@H]2[C@H](C)O[C@@H](O[C@@H]3/C(C)=C/C[C@@H]4C[C@@H](C[C@]5(C=C[C@H](C)[C@@H](C(C)C)O5)O4)OC(=O)[C@@H]4C=C(C)[C@@H](O)[C@H]5OC/C(=C\C=C\[C@@H]3C)[C@]54O)C[C@@H]2OC)O[C@@H](C)[C@@H]1O` [ABAMECTIN], the concentration for half-maximal inhibition (IC50) entry in assay [1], in assay [2] (cho-k1), in assay [3] (insect cells), in assay [4] (reticulocytes), in assay [5] (cho-k1) and in assay [6] was “Not Active” in each case.

Consider `CN/C(=N\CCSCc1nc[nH]c1C)NC#N` [CIMETIDINE], for which the half-inhibitory concentration (IC50) entry in assay [1], in assay [2] (cho-k1), in assay [3] (insect cells), in assay [4] (reticulocytes), in assay [5] (cho-k1) and in assay [6] was “Not Active” throughout.

What is called Ki is a dissociation constant, usually derived from enzyme kinetics or from competition with a known ligand. NYSTATIN: the half-inhibitory concentration (IC50) entry in assay [1], in assay [2] (cho-k1), in assay [3] (insect cells), in assay [4] (reticulocytes), in assay [5] (cho-k1) and in assay [6] was “Not Active” each time. Also, the inhibition constant Ki result in assay [1], in assay [2] (cho-k1), in assay [3] (insect cells), in assay [4] (reticulocytes), in assay [5] (cho-k1) and in assay [6] was “Not Active” throughout.

Regarding `CCCNCC(O)COc1ccccc1C(=O)CCc1ccccc1` (stereo unspecified) [PROPAFENONE], the half-inhibitory concentration (IC50) in assay [2] (read-out: IC50) was 1640 nM; in assay [3] (insect cells), “Not Active”; in assay [4] (reticulocytes), “Not Active”; in assay [6], “Not Active”. Moreover, the Ki in assay [2] (read-out: Ki) is 935 nM.

On to `COC(=O)Nc1nc2ccc([S+]([O-])c3ccccc3)cc2[nH]1` (stereo unspecified) [OXFENDAZOLE], for which the IC50 entry in assay [1], in assay [2] (cho-k1), in assay [3] (insect cells), in assay [4] (reticulocytes), in assay [5] (cho-k1) and in assay [6] was “Not Active” in each case.

As to `CCC1(C)CC(=O)NC1=O` (stereo unspecified) [ETHOSUXIMIDE], the half-inhibitory concentration (IC50) result in assay [1], in assay [2] (cho-k1), in assay [3] (insect cells), in assay [4] (reticulocytes), in assay [5] (cho-k1) and in assay [6] was “Not Active” each time.

On to `Brc1c(NC2=NCCN2)ccc2nccnc12` [BRIMONIDINE], for which the half-maximal inhibitory concentration (IC50) result in assay [1] is “Not Active”; in assay [2] (read-out: IC50), 2550 nM; in assay [3] (insect cells) it was “Not Active”; in assay [4] (reticulocytes) it was “Not Active”; in assay [5] (cho-k1), “Not Active”; in assay [6] it was “Not Active”. In assay [2] (read-out: Ki), the Ki was 1460 nM.

With `CC[C@H]1CN2CCc3cc(OC)c(OC)cc3[C@@H]2C[C@@H]1C[C@H]1NCCc2cc(OC)c(OC)cc21` [EMETINE], the IC50 entry in assay [1], in assay [2] (cho-k1), in assay [3] (insect cells), in assay [4] (reticulocytes), in assay [5] (cho-k1) and in assay [6] was “Not Active” each time.

For the compound `COc1cc([C@@H]2c3cc4c(cc3[C@@H](O[C@@H]3O[C@@H]5CO[C@@H](C)O[C@H]5[C@H](O)[C@H]3O)[C@H]3COC(=O)[C@H]23)OCO4)cc(OC)c1O` [ETOPOSIDE], the 50% inhibitory concentration (IC50) result in assay [1] is “Not Active”; in assay [2] (cho-k1) it was “Not Active”; in assay [3] (insect cells), “Not Active”; in assay [4] (read-out: IC50) it was 3190 nM; in assay [5] (cho-k1), “Not Active”; in assay [6] it was “Not Active”.

Regarding `COC(=O)CCc1ccc(OCC(O)CNC(C)C)cc1` (stereo unspecified) [ESMOLOL], the IC50 result in assay [1], in assay [2] (cho-k1), in assay [3] (insect cells), in assay [4] (reticulocytes), in assay [5] (cho-k1) and in assay [6] was “Not Active” in each case.

As for `COc1ccc(C(=O)N2CCCC2=O)cc1`, the IC50 entry in assay [1], in assay [2] (cho-k1), in assay [3] (insect cells), in assay [4] (reticulocytes), in assay [5] (cho-k1) and in assay [6] was “Not Active” each time.

Consider `O=C(O)CCNC(=O)c1ccccc1` [BETAMIPRON], for which the concentration for half-maximal inhibition (IC50) entry in assay [1], in assay [2] (cho-k1), in assay [3] (insect cells), in assay [4] (reticulocytes), in assay [5] (cho-k1) and in assay [6] was “Not Active” in each case.

For the compound `O=c1cnn([C@@H]2O[C@H](CO)[C@@H](O)[C@H]2O)c(=O)[nH]1` [6-AZAURIDINE], the IC50 entry in assay [1], in assay [2] (cho-k1), in assay [3] (insect cells), in assay [4] (reticulocytes), in assay [5] (cho-k1) and in assay [6] was “Not Active” each time.

As to `Cc1c(OCC(F)(F)F)ccnc1C[S+]([O-])c1nc2ccccc2[nH]1` (stereo unspecified) [LANSOPRAZOLE], the IC50 entry in assay [1], in assay [2] (cho-k1), in assay [3] (insect cells), in assay [4] (reticulocytes), in assay [5] (cho-k1) and in assay [6] was “Not Active” in each case.

Take `C[C@@H]1C[C@H]2[C@@H]3CCC4=CC(=O)C=C[C@]4(C)[C@@]3(F)[C@@H](O)C[C@]2(C)[C@H]1C(=O)CO` [DESOXIMETASONE]: the IC50 entry in assay [1], in assay [2] (cho-k1), in assay [3] (insect cells), in assay [4] (reticulocytes), in assay [5] (cho-k1) and in assay [6] was “Not Active” in each case.

As to `O=C(c1ccccc1C(F)(F)F)N1CCC(Cc2ccccc2)CC1`, the IC50 entry was “Not Active” in assay [1]; “Not Active” in assay [2] (cho-k1); “Not Active” in assay [3] (insect cells); “Not Active” in assay [4] (reticulocytes); 1550 nM in assay [5] (read-out: IC50); “Not Active” in assay [6]. For the same compound, the Ki in assay [5] (read-out: Ki) was 986 nM.

Consider `O=c1cc(N2CCOCC2)oc2c(-c3ccccc3)cccc12` [LY-294002], for which the 50% inhibitory concentration (IC50) entry in assay [1] was “Not Active”; in assay [2] (cho-k1) it was “Not Active”; in assay [3] (insect cells), “Not Active”; in assay [4] (reticulocytes), “Not Active”; in assay [5] (read-out: IC50) it was 36700 nM; in assay [6], “Not Active”. The Ki in assay [5] (read-out: Ki) was 23400 nM.

In the case of `COc1cc(N)c(Cl)cc1C(=O)NC1CCN(CCCOc2ccc(F)cc2)CC1OC` (stereo unspecified) [CISAPRIDE], the half-maximal inhibitory concentration (IC50) entry was “Not Active” in assay [1]; 2830 nM in assay [2] (read-out: IC50); “Not Active” in assay [3] (insect cells); “Not Active” in assay [4] (reticulocytes); “Not Active” in assay [6]. In assay [2] (read-out: Ki), the inhibition constant (Ki) was 1620 nM.

Regarding `N=C(N)NC(=O)Cc1c(Cl)cccc1Cl` [GUANFACINE], the 50% inhibitory concentration (IC50) result is “Not Active” in assay [1]; “Not Active” in assay [2] (cho-k1); “Not Active” in assay [3] (insect cells); “Not Active” in assay [4] (reticulocytes); 2100 nM in assay [5] (read-out: IC50); “Not Active” in assay [6]. Also, in assay [5] (read-out: Ki), the Ki is 1340 nM.

Regarding `NC(=O)C[S+]([O-])C(c1ccccc1)c1ccccc1` (stereo unspecified) [MODAFINIL], the IC50 result in assay [1], in assay [2] (cho-k1), in assay [3] (insect cells), in assay [4] (reticulocytes), in assay [5] (cho-k1) and in assay [6] was “Not Active” each time.

Turning to `CC(C)NCC(O)COc1cccc2[nH]ccc12` (stereo unspecified) [PINDOLOL], the IC50 in assay [2] (read-out: IC50) is 48 nM; in assay [3] (insect cells), “Not Active”; in assay [4] (reticulocytes) it was “Not Active”; in assay [5] (cho-k1), “Not Active”; in assay [6], “Not Active”. In addition, the inhibition constant Ki in assay [2] (read-out: Ki) stood at 27 nM.

Regarding `Oc1c(Cl)cc(Cl)c(Cl)c1Cc1c(O)c(Cl)cc(Cl)c1Cl` [HEXACHLOROPHENE], the IC50 entry was “Not Active” in assay [1]; “Not Active” in assay [2] (cho-k1); 3320 nM in assay [3] (read-out: IC50); “Not Active” in assay [4] (reticulocytes); “Not Active” in assay [6].
